Laboratory results taken from publication PMC11272821, “Mechanistic safety assessment via multi-omic characterisation of systemic pathway perturbations following in vivo MAT2A inhibition” (Archives of Toxicology, 2024).

Tested on: rat liver proteome
Assay: Liver label-free quantitative proteomics
Assay type: in vivo
Description: Liver tissue were homogenized in PreOmics iST buffer (PreOmics) using a bead ruptor. […] Peptides were purified using PreOmics iST cartridges and vacuum-centrifuged to dryness. Peptides were subsequently reconstituted in 2 vol% ACN and 0.1 vol% formic acid for single-run LC–MS analysis. Peptides were analyzed using a Thermo EASY-nLC1200 coupled online to an Exploris 480 Mass Spectrometer equipped with a Nanospray Flex Ion Source integrated with a column oven (PRSO-V1, Sonation) and a FAIMS unit. Peptides were separated using a nonlinear gradient and analyzed by acquiring spectra through Data Independent Acquisition (DIA). Data was analyzed using Spectronaut V15.7.2 (Biognosys AG) direct DIA analysis using an isoform Rat database (UniProt downloaded 22.02.2021) consisting of 9,746 protein entries utilizing the Pulsar search engine. Analysis settings were maintained to factory settings and identification was set to 1% false discovery rate (FDR) for precursor and protein level. Additional information is provided in Supplementary M&M.
Data analysis was performed using R Statistical Software (version 4.3.0). Proteomics, transcriptomics and metabolomics expression changes were visualised using heatmaps showing log2 fold change relative to control. In the heatmaps missing values were highlighted in grey.
Proteomics Analysis. Liver tissue was placed in vials containing 1.4 mm zirconia beads and taken up in 500 µL of PreOmics iST buffer (PreOmics). In a cold room set to 4 °C, tissues were homogenized utilizing a bead Ruptor 12 by shaking for 30 seconds for a total of 5 times using ‘high’ setting. Lysate was normalized using BCA assay (Thermo Fisher Scientific), and subsequently incubated at 95 °C for 10 min for reduction, and alkylation of proteins. A total of 50 μg from each sample was subjected to enzymatic cleavage for 3 h by adding equal amounts of endoproteinase Lys-C and trypsin (ThermoFisher Scientific, # A40009) in a 1:50 (wt/wt) enzyme:protein ratio. De-salting and purification were performed according to the PreOmics iST protocol on a styrene divinylbenzene reversed-phase sulfonate sorbent. Purified peptides were vacuum-centrifuged to dryness and reconstituted in double-distilled water with 2 vol% ACN and 0.1 vol% formic acid (FA) for single-run LC-MS analysis.
Peptides were loaded onto a ReproSil-Pur 120 C18AQ 1.9 µm in-house packed to a 5 µm tip 75u ID × 360u × 50 cm column using Thermo EASY-nLC 1200 coupled online to an Exploris 480 Mass Spectrometer equipped with a Nanospray Flex Ion Source integrated with a column oven (PRSO-V1, Sonation) maintained at 50 °C. Peptides were separated using a nonlinear gradient: Mobile phase A was 0.1 vol% FA and 3 vol% acetonitrile (ACN) in water, Mobile phase B was 90 vol% ACN and 0.1 vol % FA. The gradient was operated at 250 nL/min flowing 3 vol% B for 3 min, 3 to 5 vol% B over 3 min, 5 to 17 vol % B over 120 min, 17 to 24 vol % B over 26 min, 24 to 30 vol% B over 14 min, 30 to 85 vol% B over 3 min.

Cn1cc2cc(-c3cc4[nH]nc(C5CC5)c4n(-c4ccc(OC(F)F)cc4)c3=O)ccc2n1 [AZ’9567]
-2.7: Mat2b Log2FC (liver protein, 30mg/kg)
-0.8: Lipa Log2FC (liver protein, 10mg/kg) | Mettl7b Log2FC (liver protein, 10mg/kg) | Acsl1 Log2FC (liver protein, 30mg/kg) | Gstm1 Log2FC (liver protein, 30mg/kg) | S1pr1 Log2FC (liver protein, 30mg/kg)
0.7: Mat2a Log2FC (liver protein, 10mg/kg) | Rmdn1 Log2FC (liver protein, 10mg/kg) | Ythdc1 Log2FC (liver protein, 10mg/kg) | Coq4 Log2FC (liver protein, 30mg/kg) | Dbnl Log2FC (liver protein, 30mg/kg) | Dmgdh Log2FC (liver protein, 30mg/kg) | Dohh Log2FC (liver protein, 30mg/kg) | Lyrm2 Log2FC (liver protein, 30mg/kg) | Paics Log2FC (liver protein, 30mg/kg) | Prmt1 Log2FC (liver protein, 30mg/kg) | Pspc1 Log2FC (liver protein, 30mg/kg)
-0.7: Hexa Log2FC (liver protein, 10mg/kg) | Mospd1 Log2FC (liver protein, 10mg/kg) | Pklr.1 Log2FC (liver protein, 10mg/kg) | Sts Log2FC (liver protein, 10mg/kg) | Txnrd2 Log2FC (liver protein, 10mg/kg) | Apeh Log2FC (liver protein, 30mg/kg) | Ctbs Log2FC (liver protein, 30mg/kg) | Fasn Log2FC (liver protein, 30mg/kg) | Gimd1 Log2FC (liver protein, 30mg/kg) | Mospd1 Log2FC (liver protein, 30mg/kg) | Rgn Log2FC (liver protein, 30mg/kg)
1.4: Tceanc2 Log2FC (liver protein, 10mg/kg) | Acsm2 Log2FC (liver protein, 30mg/kg) | Anpep Log2FC (liver protein, 30mg/kg)
0.5: Cfdp1 Log2FC (liver protein, 30mg/kg) | Fdps Log2FC (liver protein, 30mg/kg) | Sirt2 Log2FC (liver protein, 30mg/kg) | Ythdc1 Log2FC (liver protein, 30mg/kg)
2.0: Aldh1a1 Log2FC (liver protein, 30mg/kg)
-0.5: Aldh16a1 Log2FC (liver protein, 30mg/kg) | Lipa Log2FC (liver protein, 30mg/kg)
-1.4: Slc22a8 Log2FC (liver protein, 30mg/kg) | Tpmt Log2FC (liver protein, 30mg/kg)
1.8: Alpl Log2FC (liver protein, 30mg/kg) | Bhmt Log2FC (liver protein, 30mg/kg) | Fgr Log2FC (liver protein, 30mg/kg) | Gpcpd1 Log2FC (liver protein, 30mg/kg)
-1.0: Fabp5 Log2FC (liver protein, 30mg/kg) | Me1 Log2FC (liver protein, 30mg/kg) | Mettl7b Log2FC (liver protein, 30mg/kg) | Ptprs Log2FC (liver protein, 30mg/kg) | Slc6a13 Log2FC (liver protein, 30mg/kg)
1.2: Orm1 Log2FC (liver protein, 10mg/kg) | Srebf1 Log2FC (liver protein, 10mg/kg) | Hmgn2 Log2FC (liver protein, 30mg/kg)
1.3: Cyp4a2 Log2FC (liver protein, 30mg/kg) | Dcakd Log2FC (liver protein, 30mg/kg) | Idi1 Log2FC (liver protein, 30mg/kg) | Srebf1 Log2FC (liver protein, 30mg/kg) | Tceanc2 Log2FC (liver protein, 30mg/kg)
-1.5: Me1 Log2FC (liver protein, 10mg/kg) | Abhd1 Log2FC (liver protein, 30mg/kg)
-1.2: Igf1 Log2FC (liver protein, 10mg/kg) | Tpmt Log2FC (liver protein, 10mg/kg) | Acaca Log2FC (liver protein, 30mg/kg) | Aox1 Log2FC (liver protein, 30mg/kg) | Enpep Log2FC (liver protein, 30mg/kg)
6.5: Mt1 Log2FC (liver protein, 30mg/kg)
1.5: Hnrnpa1 Log2FC (liver protein, 30mg/kg) | Minpp1 Log2FC (liver protein, 30mg/kg) | Orm1 Log2FC (liver protein, 30mg/kg)
16.3: Ccnd1 Log2FC (liver protein, 30mg/kg)
1.1: Hmgcs1 Log2FC (liver protein, 10mg/kg) | Hnrnpa1 Log2FC (liver protein, 10mg/kg) | Minpp1 Log2FC (liver protein, 10mg/kg) | Mtr Log2FC (liver protein, 10mg/kg) | Mybbp1a Log2FC (liver protein, 10mg/kg) | Bhmt2 Log2FC (liver protein, 30mg/kg) | Cyp4a10 Log2FC (liver protein, 30mg/kg) | Fabp4 Log2FC (liver protein, 30mg/kg) | Fdft1 Log2FC (liver protein, 30mg/kg) | Mtr Log2FC (liver protein, 30mg/kg)
-1.1: Akap5 Log2FC (liver protein, 30mg/kg) | Als2 Log2FC (liver protein, 30mg/kg) | Apoc1 Log2FC (liver protein, 30mg/kg) | Csad Log2FC (liver protein, 30mg/kg) | Pklr.1 Log2FC (liver protein, 30mg/kg) | Ugt2b1 Log2FC (liver protein, 30mg/kg) | Wdr45 Log2FC (liver protein, 30mg/kg)
0.6: Hsd17b7 Log2FC (liver protein, 10mg/kg) | Kalrn Log2FC (liver protein, 10mg/kg) | Pcyt1a Log2FC (liver protein, 10mg/kg) | Sh3glb1 Log2FC (liver protein, 10mg/kg) | Sqle Log2FC (liver protein, 10mg/kg) | Dkc1 Log2FC (liver protein, 30mg/kg) | Hsd17b7 Log2FC (liver protein, 30mg/kg) | Kalrn Log2FC (liver protein, 30mg/kg) | Mat1a Log2FC (liver protein, 30mg/kg) | Thg1l Log2FC (liver protein, 30mg/kg) | Ube2f Log2FC (liver protein, 30mg/kg)
1.0: Hfe Log2FC (liver protein, 10mg/kg) | Hmgn2 Log2FC (liver protein, 10mg/kg) | Lrrc8d Log2FC (liver protein, 10mg/kg) | Rbm3 Log2FC (liver protein, 10mg/kg) | Aqp8 Log2FC (liver protein, 30mg/kg) | Asns Log2FC (liver protein, 30mg/kg) | Chid1 Log2FC (liver protein, 30mg/kg) | Eif4ebp1 Log2FC (liver protein, 30mg/kg) | Hfe Log2FC (liver protein, 30mg/kg) | Mybbp1a Log2FC (liver protein, 30mg/kg) | Pum3 Log2FC (liver protein, 30mg/kg) | Rbm3 Log2FC (liver protein, 30mg/kg)
5.3: Mt1 Log2FC (liver protein, 10mg/kg)
-1.7: Tat Log2FC (liver protein, 10mg/kg)
-1.3: Ptprs Log2FC (liver protein, 10mg/kg) | Slc6a13 Log2FC (liver protein, 10mg/kg) | Carnmt1 Log2FC (liver protein, 30mg/kg)
-3.2: Scd1 Log2FC (liver protein, 30mg/kg)
1.6: Hmgcs1 Log2FC (liver protein, 30mg/kg)
-1.6: Mettl26 Log2FC (liver protein, 10mg/kg) | Ugt2b1 Log2FC (liver protein, 10mg/kg) | Fads1 Log2FC (liver protein, 30mg/kg) | Igf1 Log2FC (liver protein, 30mg/kg) | Tat Log2FC (liver protein, 30mg/kg)
0.9: Idi1 Log2FC (liver protein, 10mg/kg) | Lyrm2 Log2FC (liver protein, 10mg/kg) | Prmt1 Log2FC (liver protein, 10mg/kg) | Pum3 Log2FC (liver protein, 10mg/kg) | Sirt2 Log2FC (liver protein, 10mg/kg) | Ube2f Log2FC (liver protein, 10mg/kg) | Banf1 Log2FC (liver protein, 30mg/kg) | Brix1 Log2FC (liver protein, 30mg/kg) | Ca5a Log2FC (liver protein, 30mg/kg) | Nob1 Log2FC (liver protein, 30mg/kg) | mvd Log2FC (liver protein, 30mg/kg)
-2.8: Cbs Log2FC (liver protein, 30mg/kg) | Slc39a4 Log2FC (liver protein, 30mg/kg)
1.9: Tspo Log2FC (liver protein, 30mg/kg)
1: Thg1l Log2FC (liver protein, 10mg/kg)
-2.2: Slc39a4 Log2FC (liver protein, 10mg/kg)
3.7: A2m Log2FC (liver protein, 30mg/kg)
1.7: Aldh1a7 Log2FC (liver protein, 30mg/kg) | Ces2c Log2FC (liver protein, 30mg/kg) | Gnmt Log2FC (liver protein, 30mg/kg)
-0.6: Rgn Log2FC (liver protein, 10mg/kg) | S1pr1 Log2FC (liver protein, 10mg/kg) | Acbd4 Log2FC (liver protein, 30mg/kg) | Acsl5 Log2FC (liver protein, 30mg/kg) | Comt Log2FC (liver protein, 30mg/kg) | Hexa Log2FC (liver protein, 30mg/kg) | Sts Log2FC (liver protein, 30mg/kg) | Txnrd2 Log2FC (liver protein, 30mg/kg)
-4.1: Cdo1 Log2FC (liver protein, 30mg/kg)
467: differentially expressed liver proteins vs vehicle control (middle dose (10 mg/kg BID), adjusted p < 0.05 and Log2 FC > 0.5 or < −0.5)
-1.8: Scd1 Log2FC (liver protein, 10mg/kg) | Mettl26 Log2FC (liver protein, 30mg/kg)
-2.4: Mat2b Log2FC (liver protein, 10mg/kg)
-0.9: Wdr45 Log2FC (liver protein, 10mg/kg) | Acly Log2FC (liver protein, 30mg/kg) | Acsl3 Log2FC (liver protein, 30mg/kg) | Baat Log2FC (liver protein, 30mg/kg) | Cyp2c23 Log2FC (liver protein, 30mg/kg) | Gstm2 Log2FC (liver protein, 30mg/kg)
2: Tspo Log2FC (liver protein, 10mg/kg) | Abcb1 Log2FC (liver protein, 30mg/kg)
0.8: Ncl Log2FC (liver protein, 10mg/kg) | Nob1 Log2FC (liver protein, 10mg/kg) | Paics Log2FC (liver protein, 10mg/kg) | Pspc1 Log2FC (liver protein, 10mg/kg) | Cdh1 Log2FC (liver protein, 30mg/kg) | Gmpr Log2FC (liver protein, 30mg/kg) | Gnl3 Log2FC (liver protein, 30mg/kg) | Gtpbp4 Log2FC (liver protein, 30mg/kg) | Lrrc8d Log2FC (liver protein, 30mg/kg) | Mat2a Log2FC (liver protein, 30mg/kg) | Ncl Log2FC (liver protein, 30mg/kg) | Pcyt1a Log2FC (liver protein, 30mg/kg) | Rmdn1 Log2FC (liver protein, 30mg/kg) | Sh3glb1 Log2FC (liver protein, 30mg/kg) | Sqle Log2FC (liver protein, 30mg/kg)
